In the supplement of paper PMC13380429:

Assays:
Settings in all cases: 72 h
Caco-2 [1] = assay: cell viability relative to DMSO; higher = less toxic
Calu-3 [2] = assay: as above
HepG2 [3] = assay: as above
U2OS [4] = assay: as above
Vero E6 [5] = assay: as above
Caco-2 [6] = assay: relative viability EC50 (midpoint between 100% and the lowest measured viability); higher = less toxic
Calu-3 [7] = assay: as above
HepG2 [8] = assay: as above
U2OS [9] = assay: as above
Vero E6 [10] = assay: as above
Caco-2 [11] = assay: drug sensitivity score (DSS) for viability; higher = more toxic; extreme values may be limits of the assay
Calu-3 [12] = assay: as above
HepG2 [13] = assay: as above
U2OS [14] = assay: as above
Vero E6 [15] = assay: as above

Row | SMILES | cell viability (Caco-2 [1]; 1 nM) [%] | cell viability (Caco-2 [1]; 10 nM) [%] | cell viability (Caco-2 [1]; 100 nM) [%] | cell viability (Caco-2 [1]; 1000 nM) [%] | cell viability (Caco-2 [1]; 10000 nM) [%] | cell viability (Calu-3 [2]; 1 nM) [%] | cell viability (Calu-3 [2]; 10 nM) [%] | cell viability (Calu-3 [2]; 100 nM) [%] | cell viability (Calu-3 [2]; 1000 nM) [%] | cell viability (Calu-3 [2]; 10000 nM) [%] | cell viability (HepG2 [3]; 1 nM) [%] | cell viability (HepG2 [3]; 10 nM) [%] | cell viability (HepG2 [3]; 100 nM) [%] | cell viability (HepG2 [3]; 1000 nM) [%] | cell viability (HepG2 [3]; 10000 nM) [%] | cell viability (U2OS [4]; 1 nM) [%] | cell viability (U2OS [4]; 10 nM) [%] | cell viability (U2OS [4]; 100 nM) [%] | cell viability (U2OS [4]; 1000 nM) [%] | cell viability (U2OS [4]; 10000 nM) [%] | cell viability (Vero E6 [5]; 1 nM) [%] | cell viability (Vero E6 [5]; 10 nM) [%] | cell viability (Vero E6 [5]; 100 nM) [%] | cell viability (Vero E6 [5]; 1000 nM) [%] | cell viability (Vero E6 [5]; 10000 nM) [%] | relative viability EC50 (Caco-2 [6]) [µM] | relative viability EC50 (Calu-3 [7]) [µM] | relative viability EC50 (HepG2 [8]) [µM] | relative viability EC50 (U2OS [9]) [µM] | relative viability EC50 (Vero E6 [10]) [µM] | drug sensitivity score (Caco-2 [11]) | drug sensitivity score (Calu-3 [12]) | drug sensitivity score (HepG2 [13]) | drug sensitivity score (U2OS [14]) | drug sensitivity score (Vero E6 [15])
1 | CC1=C(C)C(=O)C(C(CCCCCC(=O)O)c2ccccc2)=C(C)C1=O (stereo not given) [seratrodast] | 91 | 92.7 | 104 | 90.4 | 95.3 | 104 | 91 | 99 | 99.2 | 104 | 98.7 | 98.7 | 101 | 98.1 | 103 | 99.8 | 95.7 | 99.6 | 93.2 | 98.5 | 97.7 | 99.5 | 96.4 | 96.9 | 98.2 | > 10 | > 10 | > 10 | > 10 | > 10 | 0 | 0 | 0 | 0 | 0
2 | C#CCN[C@@H]1CCc2ccccc21 [rasagiline] | 97 | 98 | 91.5 | 99 | 94.2 | 87 | 96.3 | 100 | 97.3 | 99.6 | 103 | 117 | 110 | 104 | 99.6 | 99.8 | 105 | 97.5 | 106 | 97.2 | 106 | 104 | 102 | 104 | 97.1 | > 10 | > 10 | > 10 | > 10 | > 10 | 0 | 0 | 0 | 0 | 0
3 | CNCCC(Oc1ccccc1OC)c1ccccc1 (stereo not given) [nisoxetine] | 105 | 96.2 | 109 | 98.6 | 107 | 94 | 107 | 98.2 | 109 | 102 | 113 | 105 | 104 | 108 | 99 | 105 | 98.3 | 102 | 99 | 102 | 107 | 104 | 101 | 103 | 95.6 | > 10 | > 10 | > 10 | > 10 | > 10 | 0 | 0 | 0 | 0 | 0
4 | CC[C@H](CO)Nc1nc(NCc2ccc(-c3ccccn3)cc2)c2ncn(C(C)C)c2n1 [CR8-(R)] | 101 | 97.1 | 86.5 | 34.5 | 34.1 | 104 | 80 | 87 | 31.3 | 39.9 | 88.7 | 102 | 17.2 | 0.7 | 8.8 | 100 | 93.3 | 99.8 | 0.2 | 4.8 | 90.2 | 99.3 | 85.8 | 2.9 | 9.3 | 0.172 | 0.184 | 0.0531 | 0.315 | 0.201 | 14.3 | 14.6 | 27.5 | 17.9 | 19.9
5 | NC[C@H](O)c1ccc(O)c(O)c1 [norepinephrine] | 88.9 | 95.9 | 101 | 93.2 | 97.5 | 101 | 88.3 | 93.7 | 98.6 | 95.3 | 102 | 95.3 | 96 | 105 | 106 | 99.4 | 100 | 98.5 | 99.8 | 99.6 | 99.9 | 96.7 | 98.1 | 95 | 98.6 | > 10 | > 10 | > 10 | > 10 | > 10 | 0 | 0 | 0 | 0 | 0
6 | O=P(O)(O)C(O)(Cc1cnc2ccccn12)P(=O)(O)O [minodronic-acid] | 98.1 | 103 | 96.4 | 103 | 98.6 | 98.1 | 95.1 | 104 | 96.5 | 106 | 99.2 | 102 | 106 | 85.5 | 101 | 100 | 97.6 | 95.9 | 102 | 102 | 106 | 102 | 98.6 | 100 | 98.1 | > 10 | > 10 | > 10 | > 10 | > 10 | 0 | 0 | 0 | 0 | 0
7 | Cn1c(=O)n(-c2ccc(C(C)(C)C#N)cc2)c2c3cc(-c4cnc5ccccc5c4)ccc3ncc21 [NVP-BEZ235] | 98.6 | 102 | 85.2 | 40.1 | 40.3 | 95.4 | 98.5 | 77.2 | 40.6 | 28.7 | 99.7 | 110 | 98.4 | 71.8 | 30.1 | 101 | 99.9 | 98.9 | 37.9 | 20.7 | 98.4 | 102 | 93.9 | 57.5 | 38.1 | 0.156 | 0.209 | 1.19 | 0.585 | 0.552 | 13.4 | 13.7 | 7.5 | 11.7 | 8.8
8 | NC(=O)c1ccc(F)c2c1C[C@@H](N(C1CCC1)C1CCC1)CO2 [robalzotan] | 92.7 | 98.3 | 97.5 | 105 | 99.5 | 98.8 | 110 | 94.5 | 91.2 | 97.7 | 105 | 101 | 99.5 | 96.9 | 100 | 102 | 107 | 97.7 | 105 | 99.1 | 102 | 99.8 | 107 | 94.4 | 103 | > 10 | > 10 | > 10 | > 10 | > 10 | 0 | 0 | 0 | 0 | 0
9 | CN1CCN(Cc2ccc(Nc3ncc(Cl)c(Nc4ccccc4S(=O)(=O)N(C)C)n3)cc2)CC1 [TP-0903] | 109 | 96.3 | 102 | 85.9 | 33.4 | 92.3 | 92 | 89 | 110 | 80.2 | 107 | 109 | 99.8 | 50.4 | 7 | 95 | 98.2 | 95.1 | 89.1 | 21 | 112 | 105 | 103 | 75.8 | 7.4 | 1.69 | > 10 | 0.948 | 2.06 | 1.51 | 5.9 | 0.3 | 11.2 | 6.2 | 8.8
10 | Cc1ccccc1C(C(=O)NC1CCCCC1)N(C(=O)Cn1ccnc1C)c1cccc(F)c1 (stereo not given) [AGI-5198] | 98.4 | 97.5 | 87.9 | 103 | 90.6 | 93.6 | 95.7 | 85.4 | 90.3 | 87.4 | 103 | 99.3 | 112 | 88.6 | 103 | 96.6 | 103 | 102 | 106 | 93.2 | 100 | 100 | 98.9 | 99.2 | 101 | > 10 | > 10 | > 10 | > 10 | > 10 | 0 | 0.8 | 0 | 0 | 0
11 | NC(=O)c1ccc(N(C(N)=O)c2c(F)cccc2F)nc1-c1ccc(F)cc1F [VX-702] | 102 | 89.9 | 103 | 85.6 | 88.4 | 101 | 94.4 | 94 | 95.4 | 87.8 | 101 | 109 | 91.9 | 110 | 108 | 97.8 | 96.2 | 96.8 | 92.6 | 94.4 | 92.7 | 105 | 88.5 | 89.1 | 89.1 | > 10 | > 10 | > 10 | > 10 | > 10 | 1.1 | 0 | 0 | 0 | 0.7
12 | NC[C@@H](O)CC(=O)O [aminohydroxybutyric-acid] | 92.1 | 91 | 86.2 | 103 | 105 | 98.4 | 103 | 97.7 | 95.1 | 104 | 102 | 91.7 | 108 | 97.2 | 104 | 93.6 | 99.7 | 96.4 | 106 | 102 | 98.6 | 91.9 | 93.3 | 92.4 | 102 | > 10 | > 10 | > 10 | > 10 | > 10 | 0 | 0 | 0 | 0 | 0
13 | Nc1c(CC(=O)O)cccc1C(=O)c1ccc(Br)cc1 [bromfenac] | 88.1 | 94.3 | 93.4 | 95.7 | 101 | 95.7 | 97 | 104 | 84.2 | 97.7 | 96.3 | 97.4 | 97.2 | 104 | 104 | 100 | 98.6 | 103 | 99.4 | 96 | 95.4 | 103 | 98.1 | 97.3 | 105 | > 10 | > 10 | > 10 | > 10 | > 10 | 0 | 0 | 0 | 0 | 0
14 | O=C(c1cccc(Br)c1)N1CCC(N2CCCC2)CC1 [UNC926] | 99.8 | 98.4 | 102 | 100 | 92.8 | 93.7 | 90.2 | 113 | 92.6 | 96.4 | 100 | 104 | 90.4 | 104 | 108 | 102 | 97.2 | 99.5 | 102 | 101 | 90.9 | 101 | 91.5 | 96.4 | 107 | > 10 | > 10 | > 10 | > 10 | > 10 | 0 | 0 | 0 | 0 | 0
15 | C[C@H](Nc1cc(-c2cnn(C)c2)cc(Nc2cnccn2)n1)c1ccc(F)cc1 [NS-018] | 99.1 | 102 | 104 | 83.6 | 32 | 96.4 | 89.1 | 91.9 | 62.7 | 42 | 101 | 102 | 102 | 75.6 | 3.1 | 97.6 | 95.1 | 100 | 87.6 | 26.4 | 106 | 100 | 99.7 | 83.4 | 14.5 | 1.58 | 0.517 | 1.54 | 1.88 | 1.76 | 6.3 | 8.1 | 9.1 | 6.1 | 7.4
